Reference: patent US9938261B2, “Heterocyclic compounds and methods of use thereof” (AMBIT BIOSCIENCES CORPORATION, priority 2011, dated 2018)
Like-named read-outs stand apart in the source and are kept apart here.

How the values were obtained:
FLT3 = target: T1, FLT3 (Homo sapiens, UniProt P36888); test: Competition binding assay, FLT3 Kd
T1 construct: made in house
T1 sequence (P36888 27-993): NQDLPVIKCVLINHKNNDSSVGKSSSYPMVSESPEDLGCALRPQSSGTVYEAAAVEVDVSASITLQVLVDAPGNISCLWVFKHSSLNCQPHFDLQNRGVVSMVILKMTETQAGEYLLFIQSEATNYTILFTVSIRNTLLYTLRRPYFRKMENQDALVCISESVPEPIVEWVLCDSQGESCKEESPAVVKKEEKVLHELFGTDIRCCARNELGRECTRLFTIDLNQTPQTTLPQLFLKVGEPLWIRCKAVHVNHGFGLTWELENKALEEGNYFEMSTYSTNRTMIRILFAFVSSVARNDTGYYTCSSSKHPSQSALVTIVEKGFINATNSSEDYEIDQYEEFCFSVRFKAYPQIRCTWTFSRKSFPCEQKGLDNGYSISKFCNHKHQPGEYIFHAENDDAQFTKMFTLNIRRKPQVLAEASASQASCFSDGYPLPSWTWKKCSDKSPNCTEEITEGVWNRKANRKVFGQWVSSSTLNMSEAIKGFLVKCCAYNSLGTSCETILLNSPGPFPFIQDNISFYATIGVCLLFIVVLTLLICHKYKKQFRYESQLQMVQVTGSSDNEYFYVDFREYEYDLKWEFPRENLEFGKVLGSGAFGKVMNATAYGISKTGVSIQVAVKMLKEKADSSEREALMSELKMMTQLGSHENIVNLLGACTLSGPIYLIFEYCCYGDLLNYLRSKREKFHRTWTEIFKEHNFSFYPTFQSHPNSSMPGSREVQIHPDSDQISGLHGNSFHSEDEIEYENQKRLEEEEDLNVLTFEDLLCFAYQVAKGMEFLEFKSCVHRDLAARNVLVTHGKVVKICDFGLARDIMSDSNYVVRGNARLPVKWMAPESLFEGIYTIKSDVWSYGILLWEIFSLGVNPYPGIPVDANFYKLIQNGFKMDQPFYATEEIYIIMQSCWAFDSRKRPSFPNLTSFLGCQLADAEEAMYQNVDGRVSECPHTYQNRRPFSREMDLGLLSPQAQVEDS
Procedure, shortened: (§1)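 Kinases as T7-phage fusions or HEK-293-expressed DNA-tagged constructs competed against immobilized biotinylated ligand on streptavidin beads, 1 h at room temperature in binding buffer. Bound kinase eluted and quantified by qPCR; Kd from eleven-point threefold dilution series.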

KIT = target: T2, KIT (Homo sapiens, UniProt P10721); test: Competition binding assay, KIT Kd
T2 construct: made in house
Procedure, shortened: as §1

PDGFRβ = target: T3, PDGFRβ (Homo sapiens, UniProt P09619); test: Competition binding assay, PDGFRβ Kd
T3 construct: made in house
Procedure, shortened: as §1

M-NFS-60 cells = test: M-NFS-60 cell proliferation assay (Alamar Blue); format: cell-based, mouse; details: Mus musculus, read-out: CSF1R M-NFS-60 CTB:IC50
Procedure, shortened: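 Mouse M-NFS-60 cells growing on 20 ng/mL M-CSF in RPMI/10% FBS were exposed to compounds (9 half-log concentrations, 0.5% DMSO) for 72 h at 37 °C. Viability read by Alamar Blue fluorescence (ex 560/em 590 nm, 3 h). IC50 = 50% proliferation inhibition versus control, mean of duplicates.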

CSF1R [1] = target: T4, CSF1R (Homo sapiens, UniProt P07333); test: Competition binding assay, CSF1R Kd; design: made in house
Procedure, shortened: as §1

CSF1R [2] = target: T4, CSF1R; test: HEK293 CSF1R phosphorylation MSD assay; format: cell-based; design: expressed in transfected cells; host or cells: HEK293; details: read-out: HEK293 pCSF1R M-CSF MSD:IC50
Procedure, shortened: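 HEK293 cells expressing CSF1R-FKBP were pretreated 2 h at 37° C with 9 half-log concentrations of compound (0.5% DMSO final), then stimulated 5 min with 50 ng/mL human M-CSF. Lysates captured on biotin-FK506 plates; phosphotyrosine detected by MSD electrochemiluminescence. IC50 versus DMSO, averaged from duplicate plates.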

[3] = 72 hours incubation, M-CSF 20 ng/mL
[4] = 2 h compound, human M-CSF 50 ng/mL for 5 min

T4 sequence (P07333 20-972): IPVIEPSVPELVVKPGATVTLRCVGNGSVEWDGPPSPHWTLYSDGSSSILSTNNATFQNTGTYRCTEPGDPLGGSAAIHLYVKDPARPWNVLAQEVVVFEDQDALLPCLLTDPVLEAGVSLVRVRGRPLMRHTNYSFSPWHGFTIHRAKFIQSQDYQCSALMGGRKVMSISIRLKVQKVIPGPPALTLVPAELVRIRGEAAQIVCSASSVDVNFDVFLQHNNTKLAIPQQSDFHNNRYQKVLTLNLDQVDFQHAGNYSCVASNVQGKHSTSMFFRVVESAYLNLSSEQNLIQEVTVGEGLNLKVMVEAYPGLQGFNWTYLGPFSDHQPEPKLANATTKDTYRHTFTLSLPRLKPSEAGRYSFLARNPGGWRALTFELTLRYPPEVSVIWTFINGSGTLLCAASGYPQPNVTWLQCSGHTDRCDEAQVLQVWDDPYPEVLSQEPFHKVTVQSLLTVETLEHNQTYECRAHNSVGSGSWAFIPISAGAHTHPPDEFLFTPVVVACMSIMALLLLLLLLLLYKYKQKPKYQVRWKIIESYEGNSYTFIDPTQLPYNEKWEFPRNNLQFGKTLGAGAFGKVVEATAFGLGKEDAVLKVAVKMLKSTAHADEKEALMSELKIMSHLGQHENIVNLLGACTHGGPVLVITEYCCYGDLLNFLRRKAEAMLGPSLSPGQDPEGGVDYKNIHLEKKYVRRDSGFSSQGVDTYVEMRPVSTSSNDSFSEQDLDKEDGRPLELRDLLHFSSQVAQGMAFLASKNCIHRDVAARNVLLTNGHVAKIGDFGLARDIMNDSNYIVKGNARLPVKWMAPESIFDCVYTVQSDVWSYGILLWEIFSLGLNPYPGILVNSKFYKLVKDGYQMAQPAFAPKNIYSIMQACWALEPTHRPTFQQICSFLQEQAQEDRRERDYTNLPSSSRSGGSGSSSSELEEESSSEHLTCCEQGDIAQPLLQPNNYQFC
T2 sequence (P10721 26-976): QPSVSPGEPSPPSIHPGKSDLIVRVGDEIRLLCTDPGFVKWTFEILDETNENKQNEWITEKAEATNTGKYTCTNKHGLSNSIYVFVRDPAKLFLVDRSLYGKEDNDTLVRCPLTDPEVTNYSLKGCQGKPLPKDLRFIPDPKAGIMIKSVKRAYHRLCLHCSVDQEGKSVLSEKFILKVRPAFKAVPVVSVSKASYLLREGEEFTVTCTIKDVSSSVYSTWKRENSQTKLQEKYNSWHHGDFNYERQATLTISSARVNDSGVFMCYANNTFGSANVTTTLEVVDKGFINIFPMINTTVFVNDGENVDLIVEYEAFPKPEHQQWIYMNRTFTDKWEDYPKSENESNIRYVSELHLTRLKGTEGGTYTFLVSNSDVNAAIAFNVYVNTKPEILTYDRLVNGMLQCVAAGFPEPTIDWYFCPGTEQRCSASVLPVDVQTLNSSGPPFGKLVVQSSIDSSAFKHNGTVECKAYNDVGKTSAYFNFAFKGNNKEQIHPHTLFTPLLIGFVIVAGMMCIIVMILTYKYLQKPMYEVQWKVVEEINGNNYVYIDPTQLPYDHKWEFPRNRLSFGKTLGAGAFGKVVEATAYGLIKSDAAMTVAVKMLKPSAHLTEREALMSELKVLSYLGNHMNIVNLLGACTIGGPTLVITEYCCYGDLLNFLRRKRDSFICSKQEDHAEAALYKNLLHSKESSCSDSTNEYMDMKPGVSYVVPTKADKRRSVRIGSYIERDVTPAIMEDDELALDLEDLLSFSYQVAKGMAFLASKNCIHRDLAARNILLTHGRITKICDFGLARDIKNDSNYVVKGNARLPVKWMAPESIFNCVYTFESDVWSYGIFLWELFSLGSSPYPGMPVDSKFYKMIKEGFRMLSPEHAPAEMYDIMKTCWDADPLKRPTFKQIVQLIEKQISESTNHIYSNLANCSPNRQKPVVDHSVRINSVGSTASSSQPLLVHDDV
T3 sequence (P09619 33-1106): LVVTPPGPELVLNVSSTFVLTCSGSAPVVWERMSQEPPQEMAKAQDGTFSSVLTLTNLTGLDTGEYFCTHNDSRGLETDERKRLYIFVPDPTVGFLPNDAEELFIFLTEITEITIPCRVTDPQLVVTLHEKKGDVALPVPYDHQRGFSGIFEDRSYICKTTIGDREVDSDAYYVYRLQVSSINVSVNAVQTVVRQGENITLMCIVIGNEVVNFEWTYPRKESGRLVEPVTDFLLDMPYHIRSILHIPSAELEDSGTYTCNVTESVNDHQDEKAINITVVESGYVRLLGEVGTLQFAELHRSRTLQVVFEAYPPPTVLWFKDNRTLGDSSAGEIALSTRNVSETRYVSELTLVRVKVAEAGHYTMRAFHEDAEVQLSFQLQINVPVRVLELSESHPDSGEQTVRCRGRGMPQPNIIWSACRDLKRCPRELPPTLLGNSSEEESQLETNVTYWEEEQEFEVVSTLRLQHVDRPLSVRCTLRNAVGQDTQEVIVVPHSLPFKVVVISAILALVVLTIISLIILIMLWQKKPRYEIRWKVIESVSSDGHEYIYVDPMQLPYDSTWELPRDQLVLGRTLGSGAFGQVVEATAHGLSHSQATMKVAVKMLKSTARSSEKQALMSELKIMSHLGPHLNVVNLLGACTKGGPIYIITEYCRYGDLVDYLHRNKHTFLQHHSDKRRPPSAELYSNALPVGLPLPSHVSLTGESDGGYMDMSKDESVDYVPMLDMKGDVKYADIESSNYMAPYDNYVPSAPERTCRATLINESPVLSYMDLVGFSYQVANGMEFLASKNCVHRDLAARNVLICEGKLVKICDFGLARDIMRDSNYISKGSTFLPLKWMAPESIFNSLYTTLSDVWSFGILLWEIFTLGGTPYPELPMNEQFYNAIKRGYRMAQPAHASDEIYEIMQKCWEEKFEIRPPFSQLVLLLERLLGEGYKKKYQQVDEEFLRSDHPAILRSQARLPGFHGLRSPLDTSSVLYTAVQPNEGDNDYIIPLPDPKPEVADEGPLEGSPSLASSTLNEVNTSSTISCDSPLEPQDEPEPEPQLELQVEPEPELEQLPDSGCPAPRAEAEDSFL

Row | Compound | Kd (FLT3) [nM] | Kd (KIT) [nM] | Kd (PDGFRβ) [nM] | Kd (CSF1R [1]) [nM] | IC50 (CSF1R [2]; [4]) [nM] | Kd (FLT3; competition binding) [nM] | Kd (KIT; competition binding) [nM] | Kd (PDGFRβ; competition binding) [nM] | Kd (CSF1R [1]; competition binding) [nM] | IC50 (CSF1R [2]; HEK293 cells, M-CSF stimulated CSF1R phosphorylation, MSD) [nM] | IC50 (M-NFS-60 cells; [3]) [nM] | IC50 (M-NFS-60 cells; M-NFS-60 cell proliferation) [nM]
1 | O[C@@H]1CCCC[C@H]1Nc1nc2ccc(Cn3cnc4ncccc43)cc2s1 [Example 5, (1R,2R)-2-((6-((1H-imidazo[4,5-b]pyridin-1-yl)methyl)benzo[d]thiazol-2-yl)amino)cyclohexanol] | > 5000 | > 2000 | > 2000 | > 50 | > 500 |  |  |  |  |  | > 1500 | 
2 | COc1cc2ncn(Cc3ccc4nc(N[C@H]5CCc6ccccc65)sc4c3)c2cc1OC [Example 11, (S)—N-(2,3-dihydro-1H-inden-1-yl)-6-((5,6-dimethoxy-1H-benzo[d]imidazol-1-yl)methyl)benzo[d]thiazol-2-amine] | 200 to 1000 | 100 to 500 | 50 to 500 | 5 to 20 | 200 to 500 |  |  |  |  |  | 400 to 1500 | 
3 | O[C@@H]1CCCC[C@H]1Nc1nc2ccc(Cn3cnc4cc(C5=CCOCC5)ccc43)cc2s1 [Example 174, (1R,2R)-2-((6-((5-(3,6-dihydro-2H-pyran-4-yl)-1H-benzo[d]imidazol-1-yl)methyl)benzo[d]thiazol-2-yl)amino)cyclohexanol] |  |  |  |  |  | ≤ 200 | ≤ 100 | ≤ 50 | ≤ 5 | ≤ 50 |  | ≤ 50

More lines, main results first:

Row | Kd (FLT3) [nM] | Kd (KIT) [nM] | Kd (PDGFRβ) [nM] | Kd (CSF1R [1]) [nM] | IC50 (CSF1R [2]; [4]) [nM] | Kd (FLT3; competition binding) [nM] | Kd (KIT; competition binding) [nM] | Kd (PDGFRβ; competition binding) [nM] | Kd (CSF1R [1]; competition binding) [nM] | IC50 (CSF1R [2]; HEK293 cells, M-CSF stimulated CSF1R phosphorylation, MSD) [nM] | Compound | IC50 (M-NFS-60 cells; [3]) [nM] | IC50 (M-NFS-60 cells; M-NFS-60 cell proliferation) [nM]
4 | ≤ 200 | 100 to 500 | 50 to 500 | 5 to 20 | 50 to 200 |  |  |  |  |  | O[C@@H]1CCCC[C@H]1Nc1nc2ccc(Cn3cnc4ccccc43)cc2s1 [Example 6, (1R,2R)-2-((6-((1H-benzo[d]imidazol-1-yl)methyl)benzo[d]thiazol-2-yl)amino)cyclohexanol] | 50 to 400 | 
5 | 200 to 1000 | 100 to 500 | 50 to 500 | 5 to 20 | ≤ 50 |  |  |  |  |  | COc1cc2ncn(Cc3ccc4nc(N[C@@H]5CCCCC5O)sc4c3)c2cc1OC (stereo in doubt) [Example 2, (1R,2R)-2-((6-((5,6-dimethoxy-1H-benzo[d]imidazol-1-yl)methyl)benzo[d]thiazol-2-yl)amino)cyclohexanol] | 50 to 400 | 
6 | 200 to 1000 | 100 to 500 | 50 to 500 | 5 to 20 | ≤ 50 |  |  |  |  |  | Cn1nnc(-c2cnc3c(c2)ncn3Cc2ccc3nc(N[C@@H]4CCCC[C@H]4O)sc3c2)n1 [Example 94, (1R,2R)-2-((6-((6-(2-methyl-2H-tetrazol-5-yl)-3H-imidazo[4,5-b]pyridin-3-yl)methyl)benzo[d]thiazol-2-yl)amino)cyclohexanol] | ≤ 50 | 
